# Tests used:
# [1] = tested on: female Harlan nude mice implanted with H460 tumor cells; assay: H-460 tumor-bearing nude mice given chemotherapeutic agent with or without Compound A: premature morbidity and hematocrit
# Procedure: To examine the effect of methods and compounds of the present invention on treatment of chemotherapy-induced anemia, the following study was performed. The human H-460 lung cancer cell line used was obtained from the National Cancer Institute. (Brower et al., (1986) Cancer Res 46:798-806.) Animals were maintained in a HEPA-filtered environment during the experimental period. Cages, food, and bedding were autoclaved. Animal diets were obtained from Harlan Teklad (Madison, Wis.). Hydrochloric acid, 0.15% (v/v), was added to the drinking water.
# Compounds of the invention were pre-formulated in an aqueous vehicle consisting of 0.1% (w/w) Polysorbate 80 (JT Baker) and 0.5% (w/w) high viscosity carboxymethyl cellulose sodium (Spectrum) to achieve a final 10 ml/kg dosing (oral gavage).
# A stock tumor was established by subcutaneously injecting a cell suspension into nude mice. The resulting tumor was maintained in nude mice subcutaneously as tumor stock prior to use. Tumor implantation was performed when the stock tumors were in log phase of growth. Before implantation, tumor tissue was harvested from stock mice and placed in RPMI-1640 medium. Necrotic tissues were dissected away and viable tissues were cut into 1-2 mm^2 pieces. In these experiments, 1×10^7H460 tumor cells were implanted subcutaneously to the flanks of female Harlan nude mice.
# Treatment (administration of compounds of the present invention) was initiated when the inoculated tumors reached approximately 100 mm^3, and continued for four weeks.
# These studies followed the guidelines of the Tumor Growth Delay (TGD) type, using a protocol that required individual animals to be humanely euthanized after reaching a set endpoint of tumor volume greater than or equal to 2 cc. At this endpoint, blood was also sampled and hematocrit (HCT) was determined.
# These two chemotherapeutic are representative of two broad classes of conventional anti-tumor therapeutics: microtubule poisons (Paclitaxcel); and DNA-directed agents, including the sub-classification of DNA alkylating agents (Carboplatin). […]
# [2] = Body weight of H-460 tumor-bearing nude mice given chemotherapeutic agent with or without Compound A; type: in vivo, female Harlan nude mice
# Procedure: To examine the effects of compounds and methods of the present invention on weight loss associated with chemotherapeutic agents, the following study was performed. This experiment was carried out essentially as described above in Example 2. […] Cages, food, and bedding were autoclaved. Animal diets were obtained from Harlan Teklad (Madison, Wis.).
# Body weights were monitored over time for individual animals. Changes in individual animal body weights over time are shown in FIGS. 3-8, and are presented as percent of initial body weight (treatment day 1), which was set at 100%.
# [3] = tested on: animal model of chemotherapy-induced anemia; type: in vivo, Sprague Dawley male rats
# Procedure: Fifteen Sprague Dawley male rats (280-300 g) were obtained from Charles River Laboratories. On day 0, rats were treated by intraperitoneal (i.p.) injection with a single dose of saline (control; n=3) at 8 ml/kg, or Cisplatin (CP; Bedford Laboratories, Bedford Ohio) at either 7 mg/kg (7 ml/kg; n=6) or 10 mg/kg (10 ml/kg; n=6). Blood samples (0.2 ml) were collected on days 5, 9, and 16 as follows. Animals were anesthetized with isoflurane and 0.2 ml of blood was collected from the tail vein into a MICROTAINER EDTA-2K tube (Becton-Dickinson). Blood samples were processed for hematocrit as described above to determine the degree of anemia produced in each animal.
# Beginning on day 19 of the study, one half of each cisplatin-treated group (n=3×2) and all of the control group were treated by oral gavage once per day for 5 consecutive days with a 2 ml/kg volume of 0.5% CMC (Sigma-Aldrich). […] Blood samples (0.5 ml) were collected as described above immediately prior to treatment and 4 days after treatment initiation. Blood samples were analyzed for CBC and reticulocyte counts as described above. On day 9 after initiation of oral treatment, a blood sample (0.1 ml) was collected and processed for hematocrit as described above.
smiles,measurement,setting,value
N.N.O=C([O-])C1(C(=O)[O-])CCC1.[Pt+2] [Carboplatin],hematocrit over time,[1]; Carboplatin alone (closed circles in FIG. 2),significant decrease
same,# animals morbid prematurely,"[1]; Cmpd A 60 mg/kg p.o., Carboplatin 120 mg/kg i.p. Q7d",6/10
same,# animals reaching study endpoint,"[1]; Cmpd A 60 mg/kg p.o., Carboplatin 120 mg/kg i.p. Q7d, endpoint tumor volume >= 2 cc",4/10
same,body weight pattern compared to non-treated vehicle control animals,"[2]; chemotherapeutic agent alone (FIG. 5, FIG. 7)",pattern of weight loss
same,animals with more than a 10% weight gain at any time during the study,[2]; number of animals of 10,3 of 10
same,animals that ended the study at a body weight below that at the start,[2]; number of animals of 10 per group,7 of 10
"O=C(O)CNC(=O)c1nc(Cl)c2ccccc2c1O [Compound A, N—((1-chloro-4-hydroxy-isoquinoline-3-carbonyl)-amino)-acetic acid]",hematocrit in Cisplatin-treated animals,"[3]; 4 days after initiating treatment with Compound A, oral gavage once per day for 5 days (FIG. 1A)",increased hematocrit
same,percent circulating reticulocytes,"[3]; Cisplatin-treated animals, compared to those without Compound A (FIG. 1B)",increased
same,hematocrit levels versus non-treated counterparts,"[3]; Cisplatin-treated rats, day 9 post-treatment (FIG. 1A)",significantly higher
same,body weight change at end of study,"[2]; mouse, in vivo",overall net weight gain
same,body weights during the time course of the study,"[2]; mouse, in vivo, 60 mg/kg",increased gradually
CC(=O)O[C@H]1C(=O)[C@@]2(C)[C@H]([C@H](OC(=O)c3ccccc3)[C@]3(O)C[C@H](OC(=O)[C@H](O)[C@@H](NC(=O)c4ccccc4)c4ccccc4)C(C)=C1C3(C)C)[C@]1(OC(C)=O)CO[C@@H]1C[C@@H]2O [Paclitaxel],animals that ended the study at a body weight below that at the start,"[2]; mouse, in vivo",2 of 10
same,body weight pattern compared to non-treated vehicle control animals,"[2]; mouse, in vivo",pattern of weight loss

# Reference: patent US7713986B2, “Compounds and methods for treatment of chemotherapy-induced anemia” (priority 2006, dated 2010)
